{"source": "patent US20030186943A1", "about": "“Substituted gamma-phenyl-delta-lactams and uses related thereto” (Inflazyme Pharmaceuticals Ltd., priority 1998, published 2003)", "key": {"[1]": {"target": "T1, PDE 5 (human platelets) (Homo sapiens, UniProt O76074)", "T1 construct": "PDE's for the various assays were partially purified from the following cells/tissues; tissue MDS Panlabs (assay service); host or cells: human platelets", "assay": "PDE isozyme specificity: PDE 5", "assay_type": "biochemical", "details": "for inhibition at 100 µM: read-out: % inhibition by 100 μM test compound 1-25, PDE5, X marks this range", "from_the_text": "Compound 12 was screened for activity against 5 of the major classes of mammalian cyclic nucleotide phosphodiesterase (termed PDE 1 through 5). PDE's 1 through 4 utilize cAMP as substrate while PDE 5 uses cGMP. The broad specificity PDE inhibitor 3-isobutyl-1-methylxanthine (IBMX; Sigma; Catalogue No. 17018)) was used as a positive control in all assays. PDE's for the various assays were partially purified from the following cells/tissues; PDE 1 (bovine heart), PDE 2 (human platelets), PDE 3 (human platelets), PDE 4 (human promonocytic U937 cells) and PDE 5 (human platelets).\nTest compounds (at 100 μM) were screened for activity against PDE 1,2 and 5, using standard biochemical methods performed at MDS Panlabs (Bothell, Wash., USA). The broad specificity PDE inhibitor 3-isobutyl-1-methylxanthine (IBMX) was used as a positive control in all assays. PDE's for the various assays were partially purified from the following cells/tissues; PDE 1 (bovine heart), PDE 2 (human platelets) and PDE 5 (human platelets). For purposes of comparison, the effects on PDE3 (human platelets) and PDE4 (human U937 monocytic cell line) described above are presented again in Table 12."}, "[2]": {"test_system": "Resiniferitoxin-induced mouse ear edema", "assay": "Resiniferitoxin-induced mouse ear edema", "assay_type": "in vivo", "details": "Mus musculus, CD1 mice; for inhibition in vivo at 100 mg/kg: ip, intraperitoneal administration; for inhibition in vivo at 50 µg/ear: topical administration, 50 μg/ear, RTX 0.1 μg/ear; for inhibition in vivo at 10 mg/kg: oral administration", "from_the_text": "One of the primary characteristics of inflammation is an increase in vascular dilation and permeability leading to the extravasation of, and collection of fluids in, the interstitium, resulting in redness and swelling. Rheumatoid arthritis in particular is characterized by pronounced edema of affected joints resulting in significant pain and stiffness. The mouse ear inflammation model is a standard in vivo assay for inflammation that is based on an increase in ear weight which is attributable to edema induced by inflammatory mediators. RTX (resiniferitoxin; Sigma; Catalogue No. R 8756)) is a diterpene isolated from the plant Euphorbia poisonii and is an ultrapotent analog of capsaicin. RTX acts by selectively stimulating nociceptive and thermal-sensitive nerve ending in tissue, eliciting neurogenic edema. Compounds of the present invention, whether administered topically, intraperitoneally or orally, inhibited development of edema induced by topical application of RTX.\nMice (CD1, Charles River Laboratories) were separated into groups (n—5−8) and tagged. Control mice had RTX (0.1 μg/ear) applied topically to the inner and outer sides of the left ear and vehicle applied to the right ear as a control. For topical administration, experimental/treatment mice received RTX+test compound solution (50 μg/ear) on the left ear and acetone on the right ear. For intraperitoneal (i.p.) administration, 100 mg/kg test compound dissolved in 100 μL PEG 200:saline (1:1) was injected followed by a 30 minute waiting period then the standard 30 minute RTX edema induction. For oral (p.o.) administration, 10 mg/kg test compound in 100 μL PEG-200 was given to animals, then edema induced using 0.1 μg/ear RTX after a 1.5 hour waiting period. After edema induction, mice were sacrificed, and a standard disc of ear tissue was removed. Each disk of tissue was immediately weighed to the nearest 1/10th of a mg. Data were analyzed by taking the difference of each left ear from the right ear, calculating the mean+/−SEM. Statistical significance was tested by 2-sample t-test on the left/right ear weight differences of the control group vs. the experimental group."}, "[3]": {"test_system": "K562 chronic myelogenous leukemia cells", "assay": "Anti-proliferative activity in K562 cells (3H-thymidine uptake)", "assay_type": "cell-based, human", "details": "for IC50: Homo sapiens, K562, 48 hours, 3H-thymidine, X marks this range, read-out: IC50 range (μM) >50", "protocol": "90 μL K562 cells (human chronic myelogenous leukemia cells) were seeded into sterile 96-well assay plates at a density of 1×10^5 cells/mL in RPMI 1640 supplemented with 10% FBS/2 mM L-glutamine. Samples to be tested were prepared in a sterile 96-well assay plate at 10×the final concentration desired. All sample dilutions contained equal amounts of DMSO to compensate for the % DMSO in the highest sample concentration used. Nine concentrations of test compound were examined for effects on growth up to a maximal concentration of 100 μM. 10 μL of the samples and controls (DMSO/normal growth control) were added to the aliquoted cells. The cells were incubated at 37° C./5% CO2 for 48 hours. Following 48 hour incubation, 20 μL of 3H-thymidine was added to each well for a final concentration of 1 μCi/mL. The cells were then incubated at 37° C./5% CO2 for 4 to 6 hours. Following 4-6 hour thymidine pulse, plates were wrapped in plastic and frozen in a −20° C. frost-free freezer overnight. Cells were harvested and ^3H-thymidine counts determined. In order to distinguish between cytotoxicity and cytostatic activity, growth curves were prepared where the average CPM value of the seeding density of cells was plotted on the same curve as the average CPM value for the maximum proliferation attained after 48 hours (DMSO growth control cells). The cells were diluted 1:2 for a concentration range of 7.8×10^3 cells/mL to 2×10^6 cells/mL. 90 μL of each cell dilution was seeded in sterile 96-well assay plated and allowed to equilibrate for approximately 4 hours at 37° C./5% CO2 prior to ^3H-thymidine pulse. The data in Table 15 was obtained as described above, and more specifically, K562 cells were seeded into 96-well plates at 1×10^5 cells/mL in RPMI 1640 supplemented with 10% FBS/2 mM L-glutamine. Various concentrations of test compound or vehicle (DMSO) was added and the cells were incubated at 37° C./5 CO2 for 48 hours. The cells were then pulsed at 37° C./5% CO2 for 4 to 6 hours with 1 μCi/mL ^3H-thymidine. Radioactivity incorporated into DNA was determined after harvesting onto glass fiber filters and scintillation counting."}, "[4]": {"test_system": "naive CD4+ T-cells", "assay": "Naive CD4+ T-cell proliferation (AND-TCR transgenic)", "assay_type": "cell-based, mouse", "protocol": "AND-TCR transgenic mice (Kaye J. et al., Nature 341:746-749, 1989) were used to provide a source of naive-antigen specific CD4+T cells. The AND-T cell antigen receptor recognizes a peptide derived from pigeon cytochrome C (pcc) in the context of the I-E^k class II MHC molecule.\nTo examine the role of a test compound in naive CD4 T cell activation and proliferation, 1×10^5 AND-lymph node T cells were cultured with 1×10^6 irradiated B10.BR spleen cells in the presence of varying concentrations of pcc peptide (0-10 μM) in 96 well plates. Proliferation was assessed by ^3H thymidine incorporation. All assay conditions were conducted in triplicate. Cell surface activation phenotype of T cells was assessed by flow cytometric analysis."}}, "data": [{"smiles": "COc1cc(C[C@@H]2CC(c3ccc(OC)c(OC)c3)COC2=O)ccc1O", "note": "(mixture of isomers) [Compound 12]", "values": [{"measurement": "inhibitory effect on PDE 5", "setting": "[1]; human platelets, cGMP substrate", "value": "no significant inhibitory effects"}, {"measurement": "inhibition at 100 µM", "setting": "[1]", "value": "1 to 25", "unit": "%"}, {"measurement": "inhibition in vivo at 100 mg/kg", "setting": "[2]", "value": 61, "unit": "%"}, {"measurement": "inhibition in vivo at 50 µg/ear", "setting": "[2]", "value": 85, "unit": "%"}]}, {"smiles": "COc1cc(C[C@@H]2C[C@@H](c3ccc(OC)c(OC)c3)COC2=O)ccc1O", "note": "[Compound 30]", "values": [{"measurement": "inhibition in vivo at 100 mg/kg", "setting": "[2]", "value": 28, "unit": "%"}, {"measurement": "inhibition in vivo at 50 µg/ear", "setting": "[2]", "value": 98, "unit": "%"}]}, {"smiles": "COc1ccc([C@@H]2CCC(=O)OC2)cc1OC1CCCC1", "note": "[Compound 41]", "values": [{"measurement": "inhibition at 100 µM", "setting": "[1]", "value": "1 to 25", "unit": "%"}, {"measurement": "IC50", "setting": "[3]", "value": "> 50", "unit": "µM"}]}, {"smiles": "COc1cc(CC2C[C@@H](c3ccc(OC)c(OC4CCCC4)c3)COC2=O)ccc1O", "note": "(some centres unmarked) [Compound 43]", "values": [{"measurement": "inhibition at 100 µM", "setting": "[1]", "value": "1 to 25", "unit": "%"}, {"measurement": "inhibition in vivo at 100 mg/kg", "setting": "[2]", "value": 72, "unit": "%"}, {"measurement": "inhibition in vivo at 10 mg/kg", "setting": "[2]", "value": 45, "unit": "%"}, {"measurement": "inhibition in vivo at 50 µg/ear", "setting": "[2]", "value": 98, "unit": "%"}, {"measurement": "inhibition at 5 µM", "setting": "[4]; Mus musculus, T-cell, @5 μM", "value": "> 70", "unit": "%"}]}, {"smiles": "COc1cc(CC2C[C@@H](c3ccc(OC)c(OC4CCCC4)c3)CNC2=O)ccc1O", "note": "(some centres unmarked) [Compound 62]", "values": [{"measurement": "inhibition in vivo at 10 mg/kg", "setting": "[2]", "value": 30, "unit": "%"}]}, {"smiles": "COc1ccc(C2CNC(=O)C2)cc1OC1CCCC1", "note": "(centres unmarked) [Rolipram, reference compound]", "values": [{"measurement": "effect on proliferative ability / cell cycle of K-562 cells", "setting": "[3]", "value": "failed to have any effect"}, {"measurement": "IC50", "setting": "[3]", "value": "> 50", "unit": "µM"}, {"measurement": "inhibition of T-cell populations", "setting": "[4]; all T-cell populations, control phosphodiesterase IV inhibitor", "value": "uniformly inhibitory"}]}]}
